# According to the supplement of paper PMC10307832:
# Columns and labels:
# Test in all cases: relative viability (nuclei count vs DMSO), 5 days (fraction); higher = more cells survive
# Trametinib + OSI-027 = compound: CC(=O)Nc1cccc(-n2c(=O)n(C3CC3)c(=O)c3c(Nc4ccc(I)cc4F)n(C)c(=O)c(C)c32)c1 [Trametinib] + COc1cccc2cc(-c3nc([C@H]4CC[C@H](C(=O)O)CC4)n4ncnc(N)c34)[nH]c12 [OSI-027] (partner 0.5 µM)
# How it was run: (§1)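 Each reported value is a median over duplicate plates. It expresses relative viability: treated-well nuclei count divided by vehicle-well nuclei count. Lung cancer cell lines in 1536-well plates were dosed by pin tool a day after seeding, alone with one drug or with a fixed anchor-drug dose plus five library-drug doses (not always all listed) in √10 steps, and nuclei were counted after 5 days.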
# Trametinib + Dasatinib = compound: CC(=O)Nc1cccc(-n2c(=O)n(C3CC3)c(=O)c3c(Nc4ccc(I)cc4F)n(C)c(=O)c(C)c32)c1 [Trametinib] + Cc1nc(Nc2ncc(C(=O)Nc3c(C)cccc3Cl)s2)cc(N2CCN(CCO)CC2)n1 [Dasatinib] (partner 0.075 µM)
# How it was run: as §1
# [1] = compound: CN1C=C(C2=CC=CC=C21)/C=C\3/C4=C(C=CC=N4)NC3=O + CS(=O)(=O)N1CCN(Cc2cc3nc(-c4cccc5[nH]ncc45)nc(N4CCOCC4)c3s2)CC1 [Pictilisib] (partner 1 µM)
# How it was run: as §1
# [2] = compound: CN1C=C(C2=CC=CC=C21)/C=C\3/C4=C(C=CC=N4)NC3=O + C[C@]1(O)C[C@@H](c2nc(-c3ccc4ccc(-c5ccccc5)nc4c3)c3c(N)nccn32)C1 [Linsitinib] (partner 1 µM)
# How it was run: as §1
cell line,measurement,setting,value
UMC-11,relative viability,Trametinib + OSI-027; first compound 0.0025 µM,0.478
same,relative viability,Trametinib + OSI-027; first compound 0.007906 µM,0.403
same,relative viability,Trametinib + OSI-027; first compound 0.025 µM,0.291
same,relative viability,Trametinib + OSI-027; first compound 0.07906 µM,0.414
same,relative viability,Trametinib + OSI-027; first compound 0.25 µM,0.406
same,relative viability,Trametinib + Dasatinib; first compound 0.0025 µM,0.446
same,relative viability,Trametinib + Dasatinib; first compound 0.007906 µM,0.509
same,relative viability,Trametinib + Dasatinib; first compound 0.025 µM,0.385
same,relative viability,Trametinib + Dasatinib; first compound 0.07906 µM,0.491
same,relative viability,Trametinib + Dasatinib; first compound 0.25 µM,0.49
same,relative viability,[1]; first compound 0.02 µM,0.742
same,relative viability,[1]; first compound 0.06325 µM,0.553
same,relative viability,[1]; first compound 0.2 µM,0.549
same,relative viability,[1]; first compound 0.6325 µM,0.763
same,relative viability,[1]; first compound 2 µM,0.875
same,relative viability,[2]; first compound 0.02 µM,0.68
same,relative viability,[2]; first compound 0.06325 µM,1
same,relative viability,[2]; first compound 0.2 µM,1.07
same,relative viability,[2]; first compound 0.6325 µM,1.1
same,relative viability,[2]; first compound 2 µM,1.18
